# Experimental data as given in ChEMBL document CHEMBL2203246, “Design and biological evaluation of imidazo[1,2-a]pyridines as novel and potent ASK1 inhibitors” (Bioorg Med Chem Lett, 2012).
# The source made the active and inactive calls. The calls are words filed in the database; no cut-off is given here.
# Assays:
# physchem = settings: buffer, pH 7.4
# Description: Lipophilicity, log D of the compound at pH 7.4
# [1] = biological target: T1, Mitogen-activated protein kinase kinase kinase 5 (Homo sapiens, UniProt Q99683); test: Competitive inhibition of human recombinant N-terminal FLAG-tagged ASK1 expressed in baculovirus infected […] cells after 60 mins by scintillation counting analysis in presence of [gamma-33P]ATP
# T1 sequence (Q99683 whole entry): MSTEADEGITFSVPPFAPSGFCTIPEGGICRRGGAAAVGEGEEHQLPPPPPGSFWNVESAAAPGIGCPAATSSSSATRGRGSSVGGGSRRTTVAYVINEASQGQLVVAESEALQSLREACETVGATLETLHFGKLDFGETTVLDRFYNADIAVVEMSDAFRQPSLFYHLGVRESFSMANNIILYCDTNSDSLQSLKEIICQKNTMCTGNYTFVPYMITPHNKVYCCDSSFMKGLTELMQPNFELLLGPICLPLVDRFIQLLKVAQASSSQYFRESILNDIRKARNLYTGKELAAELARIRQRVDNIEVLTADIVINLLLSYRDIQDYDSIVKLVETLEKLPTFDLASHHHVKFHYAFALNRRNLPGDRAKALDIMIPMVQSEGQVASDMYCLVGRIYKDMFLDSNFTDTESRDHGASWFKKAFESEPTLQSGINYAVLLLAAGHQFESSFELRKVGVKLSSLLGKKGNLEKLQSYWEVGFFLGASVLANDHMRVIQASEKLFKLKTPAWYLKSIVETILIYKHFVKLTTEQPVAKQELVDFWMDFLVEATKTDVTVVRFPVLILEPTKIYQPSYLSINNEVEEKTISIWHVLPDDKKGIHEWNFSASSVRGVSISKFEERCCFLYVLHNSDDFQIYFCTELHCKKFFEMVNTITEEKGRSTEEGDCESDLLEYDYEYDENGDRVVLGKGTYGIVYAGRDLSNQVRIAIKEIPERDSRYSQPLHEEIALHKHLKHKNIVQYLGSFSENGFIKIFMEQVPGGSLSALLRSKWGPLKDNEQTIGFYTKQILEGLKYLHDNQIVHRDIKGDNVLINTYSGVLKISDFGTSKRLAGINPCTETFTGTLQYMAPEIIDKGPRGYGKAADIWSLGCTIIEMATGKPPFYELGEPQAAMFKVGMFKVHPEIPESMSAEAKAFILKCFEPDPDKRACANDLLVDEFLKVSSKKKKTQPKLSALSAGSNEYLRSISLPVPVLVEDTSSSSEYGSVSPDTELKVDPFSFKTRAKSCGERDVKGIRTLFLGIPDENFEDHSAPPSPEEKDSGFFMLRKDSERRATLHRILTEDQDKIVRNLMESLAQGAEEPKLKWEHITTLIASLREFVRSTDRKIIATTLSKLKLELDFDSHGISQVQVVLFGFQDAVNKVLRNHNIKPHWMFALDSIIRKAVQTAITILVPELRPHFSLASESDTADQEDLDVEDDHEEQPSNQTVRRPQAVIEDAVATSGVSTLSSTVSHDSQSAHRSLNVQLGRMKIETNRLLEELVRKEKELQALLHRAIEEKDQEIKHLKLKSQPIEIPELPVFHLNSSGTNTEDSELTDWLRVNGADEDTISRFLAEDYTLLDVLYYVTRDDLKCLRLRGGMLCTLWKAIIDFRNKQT
# INS1 [2] = test: Inhibition of ASK1 in rat INS1 ([…]) cells assessed as downregulation of streptozotocin-induced JNK phosphorylation at 0.3 to 10 uM incubated for 1 hr prior to streptozotocin induction measured after 1 hr by Western blot analysis; type: cell-based
# INS1 [3] = test: Inhibition of ASK1 in rat INS1 ([…]) cells assessed as downregulation of streptozotocin-induced p38 phosphorylation incubated for 1 hr prior to streptozotocin induction measured after 1 hr by Western blot analysis; type: cell-based
# [4] = biological target: Mitogen-activated protein kinase 8 (Homo sapiens, UniProt P45983); test: Inhibition of JNK1
# Chain of Mitogen-activated protein kinase 8 (P45983 whole entry): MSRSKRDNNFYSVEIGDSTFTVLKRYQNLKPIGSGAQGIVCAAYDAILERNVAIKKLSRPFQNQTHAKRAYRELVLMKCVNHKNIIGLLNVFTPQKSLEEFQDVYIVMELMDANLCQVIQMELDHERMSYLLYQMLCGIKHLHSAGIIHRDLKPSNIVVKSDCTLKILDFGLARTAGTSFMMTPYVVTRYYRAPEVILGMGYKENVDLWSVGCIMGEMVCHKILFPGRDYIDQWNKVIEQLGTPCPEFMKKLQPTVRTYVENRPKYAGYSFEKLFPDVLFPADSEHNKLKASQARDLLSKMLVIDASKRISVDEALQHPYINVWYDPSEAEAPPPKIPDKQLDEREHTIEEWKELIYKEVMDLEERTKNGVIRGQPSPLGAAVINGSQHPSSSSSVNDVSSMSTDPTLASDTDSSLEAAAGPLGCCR
# [5] = biological target: Mitogen-activated protein kinase kinase kinase 1 (Homo sapiens, UniProt Q13233); test: Inhibition of MEKK1
# Chain of Mitogen-activated protein kinase kinase kinase 1 (Q13233 whole entry): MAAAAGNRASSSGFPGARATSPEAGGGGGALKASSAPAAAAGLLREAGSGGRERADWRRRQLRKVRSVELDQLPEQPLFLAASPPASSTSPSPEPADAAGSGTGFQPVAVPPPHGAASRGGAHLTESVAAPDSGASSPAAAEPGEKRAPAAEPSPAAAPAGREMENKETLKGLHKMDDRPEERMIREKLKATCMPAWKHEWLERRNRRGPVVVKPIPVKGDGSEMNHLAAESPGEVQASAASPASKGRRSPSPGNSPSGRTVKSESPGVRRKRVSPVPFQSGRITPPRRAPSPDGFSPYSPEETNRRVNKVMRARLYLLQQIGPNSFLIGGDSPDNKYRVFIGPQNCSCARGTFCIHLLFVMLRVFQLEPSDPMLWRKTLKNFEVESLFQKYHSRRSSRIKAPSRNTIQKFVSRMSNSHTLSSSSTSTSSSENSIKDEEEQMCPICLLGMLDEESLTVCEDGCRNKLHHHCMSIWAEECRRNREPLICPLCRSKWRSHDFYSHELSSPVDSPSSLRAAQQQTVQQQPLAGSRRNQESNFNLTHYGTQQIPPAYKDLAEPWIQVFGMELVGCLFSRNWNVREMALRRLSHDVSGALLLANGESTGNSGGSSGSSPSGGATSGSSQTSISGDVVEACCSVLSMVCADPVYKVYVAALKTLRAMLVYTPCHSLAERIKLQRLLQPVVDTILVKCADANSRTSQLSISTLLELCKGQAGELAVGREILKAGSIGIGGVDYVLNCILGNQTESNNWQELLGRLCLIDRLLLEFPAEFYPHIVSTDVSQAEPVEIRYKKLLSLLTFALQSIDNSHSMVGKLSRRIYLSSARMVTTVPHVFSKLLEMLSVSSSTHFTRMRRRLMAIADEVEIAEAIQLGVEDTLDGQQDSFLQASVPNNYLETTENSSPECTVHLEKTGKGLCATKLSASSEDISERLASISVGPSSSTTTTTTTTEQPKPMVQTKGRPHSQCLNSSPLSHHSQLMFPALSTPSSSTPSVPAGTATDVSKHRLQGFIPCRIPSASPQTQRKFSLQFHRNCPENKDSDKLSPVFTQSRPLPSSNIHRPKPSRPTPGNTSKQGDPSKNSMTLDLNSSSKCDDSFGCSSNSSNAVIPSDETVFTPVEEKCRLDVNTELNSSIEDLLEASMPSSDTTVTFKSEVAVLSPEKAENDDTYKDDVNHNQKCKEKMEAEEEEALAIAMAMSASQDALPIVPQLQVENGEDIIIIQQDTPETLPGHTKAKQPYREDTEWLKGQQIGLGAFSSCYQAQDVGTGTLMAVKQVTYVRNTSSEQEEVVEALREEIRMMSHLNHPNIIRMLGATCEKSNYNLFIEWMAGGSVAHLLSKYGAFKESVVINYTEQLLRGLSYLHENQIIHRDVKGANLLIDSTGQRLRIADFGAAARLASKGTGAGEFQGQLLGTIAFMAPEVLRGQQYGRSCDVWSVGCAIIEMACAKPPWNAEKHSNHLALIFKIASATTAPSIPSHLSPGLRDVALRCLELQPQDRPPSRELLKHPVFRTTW
# [6] = biological target: T2, Inhibitor of nuclear factor kappa-B kinase subunit beta (Homo sapiens, UniProt O14920); test: Inhibition of IKKbeta
# T2 sequence (O14920 whole entry): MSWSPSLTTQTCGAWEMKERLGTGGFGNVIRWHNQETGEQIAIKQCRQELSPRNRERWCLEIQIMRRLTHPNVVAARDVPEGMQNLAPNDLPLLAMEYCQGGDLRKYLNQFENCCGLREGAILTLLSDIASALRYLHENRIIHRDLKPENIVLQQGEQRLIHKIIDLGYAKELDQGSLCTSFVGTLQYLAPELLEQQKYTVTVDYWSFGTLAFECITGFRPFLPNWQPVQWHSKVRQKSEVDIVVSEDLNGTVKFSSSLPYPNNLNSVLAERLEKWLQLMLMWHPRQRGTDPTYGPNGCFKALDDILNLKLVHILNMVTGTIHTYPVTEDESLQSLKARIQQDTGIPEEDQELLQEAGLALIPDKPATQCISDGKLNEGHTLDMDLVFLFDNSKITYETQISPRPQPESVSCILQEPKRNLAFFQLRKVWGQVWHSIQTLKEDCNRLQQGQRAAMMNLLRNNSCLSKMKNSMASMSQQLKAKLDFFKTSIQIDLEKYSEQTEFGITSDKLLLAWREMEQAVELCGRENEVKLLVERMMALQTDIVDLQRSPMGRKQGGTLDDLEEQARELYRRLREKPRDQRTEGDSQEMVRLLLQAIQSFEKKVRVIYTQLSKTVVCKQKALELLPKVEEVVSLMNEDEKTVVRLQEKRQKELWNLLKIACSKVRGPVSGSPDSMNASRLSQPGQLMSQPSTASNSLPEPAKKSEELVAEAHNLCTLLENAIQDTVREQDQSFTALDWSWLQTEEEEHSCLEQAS
# [7] = biological target: Mitogen-activated protein kinase 14 (Homo sapiens, UniProt Q16539); test: Inhibition of p38alpha
# Chain of Mitogen-activated protein kinase 14 (Q16539 whole entry): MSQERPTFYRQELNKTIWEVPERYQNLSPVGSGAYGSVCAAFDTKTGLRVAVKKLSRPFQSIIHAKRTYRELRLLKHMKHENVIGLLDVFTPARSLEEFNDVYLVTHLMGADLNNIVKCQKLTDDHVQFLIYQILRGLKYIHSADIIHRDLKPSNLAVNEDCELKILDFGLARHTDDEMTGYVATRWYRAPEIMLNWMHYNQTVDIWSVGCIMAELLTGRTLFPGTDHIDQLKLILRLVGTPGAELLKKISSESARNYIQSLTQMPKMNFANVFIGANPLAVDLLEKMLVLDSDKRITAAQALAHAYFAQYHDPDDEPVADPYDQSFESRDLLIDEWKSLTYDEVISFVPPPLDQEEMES
# [8] = biological target: Glycogen synthase kinase-3 beta (Homo sapiens, UniProt P49841); test: Inhibition of GSK3beta
# Chain of Glycogen synthase kinase-3 beta (P49841 whole entry): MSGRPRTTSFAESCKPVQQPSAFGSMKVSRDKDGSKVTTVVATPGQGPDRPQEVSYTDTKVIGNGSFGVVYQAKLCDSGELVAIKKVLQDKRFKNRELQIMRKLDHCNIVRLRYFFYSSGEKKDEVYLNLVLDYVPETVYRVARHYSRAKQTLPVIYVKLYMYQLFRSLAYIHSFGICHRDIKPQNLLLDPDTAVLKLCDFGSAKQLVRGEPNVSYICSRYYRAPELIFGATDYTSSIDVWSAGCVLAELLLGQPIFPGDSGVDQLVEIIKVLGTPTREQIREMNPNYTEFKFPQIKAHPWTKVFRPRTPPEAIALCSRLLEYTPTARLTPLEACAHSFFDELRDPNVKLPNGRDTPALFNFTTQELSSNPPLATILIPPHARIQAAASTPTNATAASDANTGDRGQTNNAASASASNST
# [9] = biological target: T3, Mitogen-activated protein kinase kinase kinase 6 (Homo sapiens, UniProt O95382); test: Inhibition of ASK2
# T3 sequence (O95382 whole entry): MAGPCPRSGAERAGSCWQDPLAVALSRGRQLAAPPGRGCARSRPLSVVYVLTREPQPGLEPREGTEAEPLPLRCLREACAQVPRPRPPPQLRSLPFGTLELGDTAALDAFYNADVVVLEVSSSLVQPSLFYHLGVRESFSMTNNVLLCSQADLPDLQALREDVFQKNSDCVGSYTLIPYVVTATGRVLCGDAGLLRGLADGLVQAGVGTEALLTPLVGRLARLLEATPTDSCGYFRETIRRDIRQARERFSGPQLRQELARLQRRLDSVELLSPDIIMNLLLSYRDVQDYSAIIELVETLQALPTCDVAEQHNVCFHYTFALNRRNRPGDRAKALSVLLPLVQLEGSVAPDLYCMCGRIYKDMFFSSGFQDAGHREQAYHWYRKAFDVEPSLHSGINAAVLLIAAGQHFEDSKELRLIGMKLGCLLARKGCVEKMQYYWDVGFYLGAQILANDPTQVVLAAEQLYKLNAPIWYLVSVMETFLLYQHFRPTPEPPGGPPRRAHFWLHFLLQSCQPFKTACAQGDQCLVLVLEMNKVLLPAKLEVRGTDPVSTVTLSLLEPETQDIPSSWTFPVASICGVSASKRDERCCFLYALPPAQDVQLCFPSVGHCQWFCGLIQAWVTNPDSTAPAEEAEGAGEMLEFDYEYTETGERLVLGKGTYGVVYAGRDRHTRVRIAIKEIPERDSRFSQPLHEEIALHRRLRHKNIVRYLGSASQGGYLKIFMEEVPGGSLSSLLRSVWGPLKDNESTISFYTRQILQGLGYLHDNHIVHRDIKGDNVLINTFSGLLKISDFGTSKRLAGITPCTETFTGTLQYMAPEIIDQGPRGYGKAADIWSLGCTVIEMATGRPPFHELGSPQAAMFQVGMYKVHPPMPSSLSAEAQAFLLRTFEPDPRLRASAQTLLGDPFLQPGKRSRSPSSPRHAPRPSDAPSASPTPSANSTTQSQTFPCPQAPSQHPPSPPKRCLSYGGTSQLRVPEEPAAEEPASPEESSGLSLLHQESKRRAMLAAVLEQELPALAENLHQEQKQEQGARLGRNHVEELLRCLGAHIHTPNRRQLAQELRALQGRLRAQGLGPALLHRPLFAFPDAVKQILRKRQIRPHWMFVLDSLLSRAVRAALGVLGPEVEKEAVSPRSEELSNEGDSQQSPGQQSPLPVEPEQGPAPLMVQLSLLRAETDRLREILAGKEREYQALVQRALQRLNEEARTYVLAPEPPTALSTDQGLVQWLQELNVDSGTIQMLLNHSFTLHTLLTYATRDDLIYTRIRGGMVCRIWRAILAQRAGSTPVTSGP
# [10] = biological target: Protein kinase C theta type (Homo sapiens, UniProt Q04759); test: Inhibition of PKCtheta
# Chain of Protein kinase C theta type (Q04759 whole entry): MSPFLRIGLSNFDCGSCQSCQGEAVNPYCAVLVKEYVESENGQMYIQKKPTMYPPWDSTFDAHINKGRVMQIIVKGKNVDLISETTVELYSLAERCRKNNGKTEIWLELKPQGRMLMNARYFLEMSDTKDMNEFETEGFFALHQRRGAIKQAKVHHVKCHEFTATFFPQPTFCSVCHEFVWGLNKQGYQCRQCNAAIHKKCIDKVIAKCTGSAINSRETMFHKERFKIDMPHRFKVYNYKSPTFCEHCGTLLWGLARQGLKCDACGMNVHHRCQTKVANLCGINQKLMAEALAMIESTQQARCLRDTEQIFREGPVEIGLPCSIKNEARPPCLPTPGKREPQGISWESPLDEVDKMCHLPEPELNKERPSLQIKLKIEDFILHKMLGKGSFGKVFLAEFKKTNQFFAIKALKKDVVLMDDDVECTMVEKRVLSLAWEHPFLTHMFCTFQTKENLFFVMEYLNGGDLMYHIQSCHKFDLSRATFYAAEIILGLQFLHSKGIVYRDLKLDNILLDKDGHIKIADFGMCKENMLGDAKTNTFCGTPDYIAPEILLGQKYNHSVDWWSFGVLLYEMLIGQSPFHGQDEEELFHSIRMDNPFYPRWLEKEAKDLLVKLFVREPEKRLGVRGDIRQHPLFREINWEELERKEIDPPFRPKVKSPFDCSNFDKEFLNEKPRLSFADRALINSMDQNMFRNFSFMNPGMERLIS
# [11] = biological target: Serine/threonine-protein kinase B-raf (Homo sapiens, UniProt P15056); test: Inhibition of BRAF
# Chain of Serine/threonine-protein kinase B-raf (P15056 whole entry): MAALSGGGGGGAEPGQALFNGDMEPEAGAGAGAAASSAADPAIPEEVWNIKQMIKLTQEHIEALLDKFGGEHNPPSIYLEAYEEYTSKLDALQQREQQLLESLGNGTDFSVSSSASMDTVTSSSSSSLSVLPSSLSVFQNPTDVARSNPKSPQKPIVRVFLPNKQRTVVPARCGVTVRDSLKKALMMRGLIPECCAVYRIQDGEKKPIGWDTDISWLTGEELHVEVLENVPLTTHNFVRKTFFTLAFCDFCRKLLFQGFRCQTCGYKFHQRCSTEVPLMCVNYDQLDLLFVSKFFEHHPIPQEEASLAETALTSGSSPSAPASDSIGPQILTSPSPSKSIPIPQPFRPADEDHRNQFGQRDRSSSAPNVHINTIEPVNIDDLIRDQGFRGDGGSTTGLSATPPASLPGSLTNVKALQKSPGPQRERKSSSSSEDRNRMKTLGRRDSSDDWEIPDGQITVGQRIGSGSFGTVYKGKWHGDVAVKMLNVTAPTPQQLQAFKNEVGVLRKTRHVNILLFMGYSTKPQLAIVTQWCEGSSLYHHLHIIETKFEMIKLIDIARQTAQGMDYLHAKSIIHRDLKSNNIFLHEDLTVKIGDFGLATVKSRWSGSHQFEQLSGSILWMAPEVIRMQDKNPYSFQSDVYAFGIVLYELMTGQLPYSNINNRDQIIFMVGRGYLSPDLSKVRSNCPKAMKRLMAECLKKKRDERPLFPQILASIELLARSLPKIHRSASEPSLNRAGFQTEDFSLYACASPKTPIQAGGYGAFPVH
# [12] = biological target: Mitogen-activated protein kinase 3 (Homo sapiens, UniProt P27361); test: Inhibition of ERK1
# Chain of Mitogen-activated protein kinase 3 (P27361 whole entry): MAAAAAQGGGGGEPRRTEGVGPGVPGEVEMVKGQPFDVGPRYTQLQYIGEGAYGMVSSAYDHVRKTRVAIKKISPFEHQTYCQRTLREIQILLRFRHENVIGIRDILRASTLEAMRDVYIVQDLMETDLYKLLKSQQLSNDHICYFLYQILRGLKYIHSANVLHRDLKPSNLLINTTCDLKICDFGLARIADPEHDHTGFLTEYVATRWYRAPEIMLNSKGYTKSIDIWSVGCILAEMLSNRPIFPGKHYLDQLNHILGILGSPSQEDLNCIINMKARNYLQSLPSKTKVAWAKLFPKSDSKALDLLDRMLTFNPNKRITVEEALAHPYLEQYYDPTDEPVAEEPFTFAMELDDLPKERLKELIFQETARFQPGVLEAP
Structure (SMILES),logD (physchem),IC50 [1] [µM],further results
CC(C)(C)c1ccc(C(=O)Nc2cn3cc(-n4ccnc4)ccc3n2)cc1 [listing 1 of 3 here],3.16,,
Cc1ccc2nc(NC(=O)c3ccc(C(C)(C)C)cc3)sc2c1,5.08,0.26,
CC(C)(C)c1ccc(C(=O)Nc2cn3cc(-n4ccnc4)ccc3n2)cc1 [listing 2 of 3 here],,,inhibition (INS1 [2]): Active; inhibition (INS1 [3]): Dose-dependent effect
CC(C)(C)c1ccc(C(=O)Nc2cn3cc(CO)ccc3n2)cc1,2.83,0.129,
CC(C)(C)c1ccc(C(=O)Nc2cn3cc(F)ccc3n2)cc1,3.55,0.034,
CC(C)(C)c1ccc(C(=O)Nc2cn3cc(Br)ccc3n2)cc1,4.17,0.021,
CNCc1ccc2nc(NC(=O)c3ccc(C(C)(C)C)cc3)cn2c1,2.4,0.87,
Cc1ccc2nc(NC(=O)c3ccc(C(C)(C)C)cc3)cn2c1,3.78,0.022,
CC(C)(C)c1ccc(C(=O)Nc2cn3cc(-c4cccnc4)ccc3n2)cc1,3.6,0.021,
CC(C)(C)c1ccc(C(=O)Nc2cn3cc(-n4cccc4)ccc3n2)cc1,,0.03,
CC(C)(CO)c1ccc(C(=O)Nc2cn3cc(-n4ccnc4)ccc3n2)cc1,1.62,0.032,
CC(C)(O)c1ccc(C(=O)Nc2cn3cc(-n4ccnc4)ccc3n2)cc1,1.27,0.07,
CC(C)(C)c1ccc(C(=O)Nc2cn3cc(-c4ccccc4)ccc3n2)cc1,4.83,0.082,
CC(C)(C)c1ccc(C(=O)Nc2cn3cc(-n4ccnc4)ccc3n2)cc1 [listing 3 of 3 here],,,IC50 [4]: > 10 µM; IC50 [5]: > 10 µM; IC50 [6]: > 10 µM; IC50 [7]: > 10 µM; IC50 [8]: > 10 µM; IC50 [9]: 0.51 µM; IC50 [10]: > 10 µM; IC50 [11]: > 10 µM; IC50 [12]: > 10 µM
CC(C)(C)c1ccc(C(=O)Nc2cn3cc(Cl)ccc3n2)cc1,4.04,0.016,
